Reference: US12577217B2, “15-PGDH inhibitor” (KYORIN Pharmaceutical Co., Ltd., priority 2019, dated 2026)

biological target: T1, recombinant human 15-PGDH (Homo sapiens, UniProt P15428); experiment: 15-PGDH enzyme inhibition test; format: biochemical; conditions: 4 nM recombinant human 15-PGDH, 30 μM PGE2, 1 mM NAD+, 60 minutes after starting the reaction; read-out: IC50 Value
T1 construct: purchased R&D Systems
T1 sequence (P15428 1-266): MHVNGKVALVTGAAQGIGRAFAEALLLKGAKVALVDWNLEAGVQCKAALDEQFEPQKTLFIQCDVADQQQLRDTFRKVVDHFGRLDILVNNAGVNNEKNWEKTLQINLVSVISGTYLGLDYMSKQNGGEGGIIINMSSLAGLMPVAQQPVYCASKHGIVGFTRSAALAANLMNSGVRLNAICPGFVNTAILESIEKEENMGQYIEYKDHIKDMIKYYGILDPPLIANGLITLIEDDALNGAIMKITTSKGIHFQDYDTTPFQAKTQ
Outline: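 Fluorescence (excitation 340 nm, emission 440 nm) measured 60 min after adding 1 mM NAD+ and 30 μM PGE2 to 4 nM recombinant human 15-PGDH, which had stood 12 min at room temperature with compound in pH 8.0 Tris-HCl buffer. Concentration-response curves yield IC50, binned into potency categories.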

Compound	IC50 [nM]
CCN(CC(C)O)C(=O)c1cnc2c(c1)OCCN2c1ccn2c(=O)n(C)nc2c1 (stereo not shown) [Example 8-179]	10 to 100
CC(O)CCN(C)C(=O)c1cnc2c(c1)OCCN2c1ccn2c(=O)n(C)nc2c1 (stereo not shown) [Example 8-181]	10 to 100
CN1Cc2cc(N3CCOc4cc(C(=O)N5CCC5)cnc43)ccc2C1=O [Example 8-184]	< 10
CN1Cc2cc(N3CCOc4cc(C(=O)N5CCCCCC5)cnc43)ccc2C1=O [Example 8-186]	< 10
CN1Cc2cc(N3CCOc4cc(C(=O)N5CCCCCCC5)cnc43)ccc2C1=O [Example 8-187]	< 10
CN1Cc2cc(N3CCOc4cc(C(=O)N5CCOCC5)cnc43)ccc2C1=O [Example 8-188]	< 10
CN1CCN(C(=O)c2cnc3c(c2)OCCN3c2ccc3c(c2)CN(C)C3=O)CC1 [Example 8-189]	< 10
CC(=O)N1CCN(C(=O)c2cnc3c(c2)OCCN3c2ccc3c(c2)CN(C)C3=O)CC1 [Example 8-190]	> 100
CN1Cc2cc(N3CCOc4cc(C(=O)N5CC=CCC5)cnc43)ccc2C1=O [Example 8-191]	< 10
CN1Cc2cc(N3CCOc4cc(C(=O)N5CCc6ccccc6C5)cnc43)ccc2C1=O [Example 8-192]	< 10
CN1Cc2cc(N3CCOc4cc(C(=O)N5Cc6ccccc6C5)cnc43)ccc2C1=O [Example 8-193]	< 10
C[C@H]1CCCCN1C(=O)c1cnc2c(c1)OCCN2c1ccc2c(c1)CN(C)C2=O [Example 8-196]	< 10
C[C@H]1CCCN(C(=O)c2cnc3c(c2)OCCN3c2ccc3c(c2)CN(C)C3=O)C1 [Example 8-198]	< 10
CN1Cc2cc(N3CCOc4cc(C(=O)N5CCC[C@@H](F)C5)cnc43)ccc2C1=O [Example 8-199]	< 10
CN1Cc2cc(N3CCOc4cc(C(=O)N5CCC[C@H](F)C5)cnc43)ccc2C1=O [Example 8-200]	< 10
CN1Cc2cc(N3CCOc4cc(C(=O)N5CCCC(F)(F)C5)cnc43)ccc2C1=O [Example 8-201]	< 10
CN1Cc2cc(N3CCOc4cc(C(=O)N5CCC[C@H](CF)C5)cnc43)ccc2C1=O [Example 8-204]	< 10
CN1Cc2cc(N3CCOc4cc(C(=O)N5CCC[C@H](C(F)F)C5)cnc43)ccc2C1=O [Example 8-206]	< 10
CN1Cc2cc(N3CCOc4cc(C(=O)N5CCC[C@@H](C(F)(F)F)C5)cnc43)ccc2C1=O [Example 8-207]	< 10

Compound	IC50 [nM]
CN1Cc2cc(N3CCOc4cc(C(=O)N5CCC[C@H](C(F)(F)F)C5)cnc43)ccc2C1=O [Example 8-208]	< 10
CN1Cc2cc(N3CCOc4cc(C(=O)N5CCCC(C)(F)C5)cnc43)ccc2C1=O (stereo not shown) [Example 8-209]	< 10
CC1CN(C(=O)c2cnc3c(c2)OCCN3c2ccc3c(c2)CN(C)C3=O)CCC1(F)F (stereo not shown) [Example 8-210]	< 10
CCn1nc2cc(N3CCOc4cc(C(=O)N5CCC(F)(F)CC5)cnc43)ccn2c1=O [Example 8-211]	< 10
CCN1Cc2cc(N3CCOc4cc(C(=O)N5CCC(F)(F)CC5)cnc43)ccc2C1=O [Example 8-212]	< 10
CCn1oc2cc(N3CCOc4cc(C(=O)N5CCCCC5)cnc43)ccc2c1=O [Example 8-213]	< 10
CCn1oc2cc(N3CCOc4cc(C(=O)N5CCC(F)(F)CC5)cnc43)ccc2c1=O [Example 8-214]	< 10
CCOc1noc2cc(N3CCOc4cc(C(=O)N5CCCCC5)cnc43)ccc12 [Example 8-215]	< 10
CCn1nc2cc(N3CCOc4cc(C(=O)N5CCCCC56COC6)cnc43)ccn2c1=O [Example 8-218]	> 100
CCn1nc2cc(N3CCOc4cc(C(=O)N5CCN(C)C(=O)C5)cnc43)ccn2c1=O [Example 8-221]	> 100
Cn1nc2cc(N3CCOc4cc(C(=O)N5CCCCC5)sc43)ccn2c1=O [Example 8-222]	< 10
Cn1nc2cc(N3CCOc4cc(C(=O)N5CCC(F)(F)CC5)sc43)ccn2c1=O [Example 8-223]	10 to 100
Cn1nc2cc(N3CCOc4cc(C(=O)N5CCCCCCC5)sc43)ccn2c1=O [Example 8-224]	10 to 100
CN1CCN(C(=O)c2cnc3c(c2)OCCN3c2ccn3c(=O)n(C)nc3c2)CC1 [Example 8-226]	10 to 100
Cn1nc2cc(N3CCOc4cc(C(=O)N5CCC[C@H]5C(=O)OC(C)(C)C)cnc43)ccn2c1=O [Example 8-227]	> 100
Cn1nc2cc(N3CCOc4cc(C(=O)N5CCC[C@@H]5C(=O)OC(C)(C)C)cnc43)ccn2c1=O [Example 8-228]	> 100
Cn1nc2cc(N3CCOc4cc(C(=O)N5CCC(O)CC5)cnc43)ccn2c1=O [Example 8-230]	< 10
O=C(O)c1ccc(N2CCOc3c2ccc(C(=O)N2CCCCC2)c3C2CC2)cc1 [Example 9-1, 4-(8-Cyclopropyl-7-(piperidine-1-carbonyl)-2,3-dihydro-4H-benzo[b][1,4]oxazin-4-yl)benzoic Acid]	< 10
CC(C)(O)c1ccc(N2CCOc3cc(C(=O)N4CCCCC4)ccc32)cc1 [Example 10-1, (4-(4-(2-Hydroxypropan-2-yl)phenyl)-3,4-dihydro-2H-benzo[b][1,4]oxazin-7-yl)(piperidin-1-yl)methanone]	< 10

Now from value to molecule:

IC50 [nM]	Compound
> 100	CCC(O)CNC(=O)c1cnc2c(c1)OCCN2c1ccn2c(=O)n(C)nc2c1 (stereo not shown) [Example 8-178]
10 to 100	CC(O)CCNC(=O)c1cnc2c(c1)OCCN2c1ccn2c(=O)n(C)nc2c1 (stereo not shown) [Example 8-180]
10 to 100	CN(CC(C)(C)O)C(=O)c1cnc2c(c1)OCCN2c1ccn2c(=O)n(C)nc2c1 [Example 8-182]
10 to 100	Cn1nc2cc(N3CCOc4cc(C(=O)N5CCC(C#N)CC5)cnc43)ccn2c1=O [Example 8-183]
< 10	CN1Cc2cc(N3CCOc4cc(C(=O)N5CCCC5)cnc43)ccc2C1=O [Example 8-185]
< 10	CC1CCN(C(=O)c2cnc3c(c2)OCCN3c2ccc3c(c2)CN(C)C3=O)CC1 [Example 8-194]
< 10	C[C@@H]1CCCCN1C(=O)c1cnc2c(c1)OCCN2c1ccc2c(c1)CN(C)C2=O [Example 8-195]
< 10	C[C@@H]1CCCN(C(=O)c2cnc3c(c2)OCCN3c2ccc3c(c2)CN(C)C3=O)C1 [Example 8-197]
< 10	CN1Cc2cc(N3CCOc4cc(C(=O)N5CCC(F)CC5)cnc43)ccc2C1=O [Example 8-202]
< 10	CN1Cc2cc(N3CCOc4cc(C(=O)N5CCC[C@@H](CF)C5)cnc43)ccc2C1=O [Example 8-203]
< 10	CN1Cc2cc(N3CCOc4cc(C(=O)N5CCC[C@@H](C(F)F)C5)cnc43)ccc2C1=O [Example 8-205]
< 10	CCOc1noc2cc(N3CCOc4cc(C(=O)N5CCC(F)(F)CC5)cnc43)ccc12 [Example 8-216]
< 10	CCn1nc2cc(N3CCOc4cc(C(=O)N5CC=CCC5)cnc43)ccn2c1=O [Example 8-217]
> 100	CCn1nc2cc(N3CCOc4cc(C(=O)N5CCN(C(C)=O)CC5)cnc43)ccn2c1=O [Example 8-219]
> 100	CCn1nc2cc(N3CCOc4cc(C(=O)N5CCN(C(=O)OC(C)(C)C)CC5)cnc43)ccn2c1=O [Example 8-220]
10 to 100	Cn1nc2cc(N3CCOc4cc(C(=O)N5CCOCC5)cnc43)ccn2c1=O [Example 8-225]
< 10	Cn1nc2cc(N3CCOc4cc(C(=O)N5CC=CCC5)cnc43)ccn2c1=O [Example 8-229]
